Calls of active or inactive are those of the source.
Assays:
INS1 = test: INS-1E survival protection against cytokine death – cell-based, luminescence, retest, dose response (AID 449756); type: functional; settings: Rattus norvegicus;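 also: cell death triggered by IL-1 beta plus TNF-alpha plus IFN-gamma mixture; protective hits raise ATP signal compared with cytokine alone wells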
Protein Wnt-3a = Protein Wnt-3a (Mus musculus, UniProt P27467); test: antagonism of Wnt3a pathway luciferase reporter – Wnt-LIGHT cells, luminescence, selectivity assay for Gli-SUFU antagonist project, dose response (AID 651570); type: functional; settings: read-out: IC50_Mean;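 also: Wnt-LIGHT reporter cells stimulated with conditioned medium from Wnt3a-producing cells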
Chain of Protein Wnt-3a (P27467 whole entry): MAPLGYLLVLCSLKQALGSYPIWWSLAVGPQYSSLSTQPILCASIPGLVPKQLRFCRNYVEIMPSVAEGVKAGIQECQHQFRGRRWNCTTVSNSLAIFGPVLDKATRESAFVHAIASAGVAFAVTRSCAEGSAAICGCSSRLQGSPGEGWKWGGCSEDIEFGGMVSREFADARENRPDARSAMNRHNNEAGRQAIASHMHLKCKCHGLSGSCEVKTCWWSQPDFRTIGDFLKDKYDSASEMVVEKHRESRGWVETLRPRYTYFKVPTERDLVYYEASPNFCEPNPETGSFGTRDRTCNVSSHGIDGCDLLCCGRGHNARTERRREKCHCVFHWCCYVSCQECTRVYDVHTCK

[1] = biological target: Nuclear receptor subfamily 5 group A member 2 (Homo sapiens, UniProt O00482); type: functional, cell-based;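 also: HEK293T cells transfected with LRH-1 and a StAR promoter luciferase reporter; potency for inhibitors that lower LRH-1 driven reporter light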
Chain of Nuclear receptor subfamily 5 group A member 2 (O00482 whole entry): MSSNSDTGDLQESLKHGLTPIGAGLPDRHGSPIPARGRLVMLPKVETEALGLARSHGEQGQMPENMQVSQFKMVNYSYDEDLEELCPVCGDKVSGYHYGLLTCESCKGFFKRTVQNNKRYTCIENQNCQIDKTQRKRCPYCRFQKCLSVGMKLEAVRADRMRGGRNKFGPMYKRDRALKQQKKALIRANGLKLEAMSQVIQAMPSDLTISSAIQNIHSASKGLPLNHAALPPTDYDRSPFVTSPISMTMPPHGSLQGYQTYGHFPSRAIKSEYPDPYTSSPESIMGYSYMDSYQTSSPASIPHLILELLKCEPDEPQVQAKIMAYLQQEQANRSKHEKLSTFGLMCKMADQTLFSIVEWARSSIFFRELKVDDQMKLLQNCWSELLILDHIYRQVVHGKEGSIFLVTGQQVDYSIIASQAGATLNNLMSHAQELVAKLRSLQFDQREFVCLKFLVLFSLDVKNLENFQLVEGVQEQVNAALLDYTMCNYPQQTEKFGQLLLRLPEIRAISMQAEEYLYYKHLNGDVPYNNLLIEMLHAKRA

Steroidogenic factor 1 = Steroidogenic factor 1 (Homo sapiens, UniProt Q13285); test: Counterscreen for inverse agonists of the liver receptor homolog-1 (LRH-1; NR5A2): Luminescence-based cell-based high throughput dose response assay to identify inverse agonists of the Steroidogenic Factor 1 Nuclear Receptor (SF1; NR5A1).; type: functional
Chain of Steroidogenic factor 1 (Q13285 whole entry): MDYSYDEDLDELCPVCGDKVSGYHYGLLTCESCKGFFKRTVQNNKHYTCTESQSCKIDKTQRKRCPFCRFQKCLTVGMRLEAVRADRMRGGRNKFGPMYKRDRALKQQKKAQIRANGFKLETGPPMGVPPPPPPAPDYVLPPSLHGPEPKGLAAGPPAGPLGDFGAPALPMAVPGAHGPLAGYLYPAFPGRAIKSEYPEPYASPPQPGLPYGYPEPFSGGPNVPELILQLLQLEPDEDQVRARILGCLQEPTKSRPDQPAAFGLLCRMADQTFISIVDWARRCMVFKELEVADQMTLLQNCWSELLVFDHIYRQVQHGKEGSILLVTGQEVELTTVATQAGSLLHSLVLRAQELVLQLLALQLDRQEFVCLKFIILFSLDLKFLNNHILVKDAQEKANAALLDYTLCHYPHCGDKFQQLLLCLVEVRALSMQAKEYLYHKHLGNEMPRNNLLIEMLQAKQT

[2] = nonselective StAR promoter luciferase inhibitors – cell-based, luminescence, luciferase reporter, counter-screen for LRH-1 inverse agonist project, dose response (AID 651969); type: functional
[3] = biological target: T1, Polyadenylate-binding protein 1 (Homo sapiens, UniProt P11940); test: MLLE domain peptide-binding blockers, IC50 – biochemical, fluorescence polarization, FITC-PAM2 peptide, dose response (AID 602259); type: functional; settings: read-out: IC50_Mean
T1 sequence (P11940 whole entry, the tested form may be a part): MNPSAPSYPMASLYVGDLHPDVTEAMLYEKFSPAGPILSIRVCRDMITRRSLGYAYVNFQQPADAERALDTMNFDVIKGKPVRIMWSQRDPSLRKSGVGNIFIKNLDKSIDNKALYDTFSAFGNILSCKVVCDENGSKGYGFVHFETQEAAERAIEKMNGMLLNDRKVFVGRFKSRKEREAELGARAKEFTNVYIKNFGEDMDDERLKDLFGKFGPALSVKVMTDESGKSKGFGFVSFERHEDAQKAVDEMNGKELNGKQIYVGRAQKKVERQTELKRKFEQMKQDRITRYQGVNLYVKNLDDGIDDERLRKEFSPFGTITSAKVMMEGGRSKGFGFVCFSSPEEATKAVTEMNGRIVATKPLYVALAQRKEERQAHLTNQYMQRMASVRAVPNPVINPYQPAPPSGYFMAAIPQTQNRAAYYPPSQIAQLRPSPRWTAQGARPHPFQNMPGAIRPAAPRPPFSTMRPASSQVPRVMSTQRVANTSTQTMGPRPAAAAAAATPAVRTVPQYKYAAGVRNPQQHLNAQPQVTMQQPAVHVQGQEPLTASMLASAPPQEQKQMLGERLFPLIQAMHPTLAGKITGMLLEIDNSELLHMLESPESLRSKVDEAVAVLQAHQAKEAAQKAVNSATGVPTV

[4] = biological target: T1, Polyadenylate-binding protein 1; test: MLLE binding blockers, Cy5 peptide tracer – biochemical, fluorescence polarization, Cy5-PAM2 peptide, secondary, miRNA deadenylation inhibitor project, dose response (AID 602260); type: functional; settings: read-out: IC50_Mean
[5] = blockers of CRF-binding protein–CRF-R2 complex – cell-based, uHTS hits, 384-well, dose response (AID 651639); type: functional, Homo sapiens; settings: read-out: IC50_Mean
[6] = biological target: T2, Corticotropin-releasing factor receptor 2/Corticotropin-releasing factor-binding protein (Homo sapiens, UniProt P24387+Q13324); test: activators of CRF receptor 2 with binding protein – uHTS hits, confirmation (AID 602473); type: functional; settings: read-out: EC50_Mean
T2 sequence (Q13324 whole entry): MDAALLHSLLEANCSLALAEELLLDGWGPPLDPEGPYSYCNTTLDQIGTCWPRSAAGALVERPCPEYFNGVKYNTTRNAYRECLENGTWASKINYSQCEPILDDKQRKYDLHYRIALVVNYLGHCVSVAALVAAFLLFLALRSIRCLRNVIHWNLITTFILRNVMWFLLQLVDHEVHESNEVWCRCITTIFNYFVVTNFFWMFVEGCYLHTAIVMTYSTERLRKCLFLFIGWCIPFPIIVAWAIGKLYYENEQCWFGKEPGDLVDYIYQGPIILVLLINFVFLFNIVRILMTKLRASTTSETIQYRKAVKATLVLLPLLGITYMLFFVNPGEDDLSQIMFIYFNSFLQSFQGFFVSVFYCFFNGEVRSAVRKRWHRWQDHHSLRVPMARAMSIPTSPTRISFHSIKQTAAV
T2 sequence (P24387 whole entry): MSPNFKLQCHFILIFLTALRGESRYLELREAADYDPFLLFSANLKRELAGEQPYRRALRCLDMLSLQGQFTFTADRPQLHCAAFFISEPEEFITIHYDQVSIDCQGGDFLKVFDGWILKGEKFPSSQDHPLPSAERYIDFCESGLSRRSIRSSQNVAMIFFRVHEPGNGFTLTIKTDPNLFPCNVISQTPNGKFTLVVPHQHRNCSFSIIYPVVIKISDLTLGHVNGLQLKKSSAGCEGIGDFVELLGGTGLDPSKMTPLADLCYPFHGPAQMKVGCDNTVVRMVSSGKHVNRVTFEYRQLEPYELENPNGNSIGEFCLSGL

[7] = biological target: T2, Corticotropin-releasing factor receptor 2/Corticotropin-releasing factor-binding protein; test: Dose Response confirmation of uHTS hits for small molecule antagonists of the CRF-binding protein and CRF-R2 receptor complex.; type: functional; settings: read-out: IC50_Mean
[8] = non-specific 3'UTR reporter inhibition in Clone20-Shn3RL – cell-based, Renilla luciferase, cherry-picked, counter-screen for Shn3 inhibitor project, dose response (AID 624133); type: functional
[9] = reduction of Shn3 3'UTR-driven luciferase in osteoblasts – cell-based, Clone20 osteoblasts, firefly luciferase, cherry-picked, dose response (AID 624132); type: functional;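 also: firefly luciferase luminescence from reporter carrying the Shn3 3'UTR in osteoblasts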
[10] = biological target: DNA repair and recombination protein RAD54-like (Homo sapiens, UniProt Q92698); test: RAD54 Holliday junction migration blockers – biochemical, fluorescence, cherry-picked samples, dose series, confirmation (AID 651657); type: functional
Chain of DNA repair and recombination protein RAD54-like (Q92698 whole entry): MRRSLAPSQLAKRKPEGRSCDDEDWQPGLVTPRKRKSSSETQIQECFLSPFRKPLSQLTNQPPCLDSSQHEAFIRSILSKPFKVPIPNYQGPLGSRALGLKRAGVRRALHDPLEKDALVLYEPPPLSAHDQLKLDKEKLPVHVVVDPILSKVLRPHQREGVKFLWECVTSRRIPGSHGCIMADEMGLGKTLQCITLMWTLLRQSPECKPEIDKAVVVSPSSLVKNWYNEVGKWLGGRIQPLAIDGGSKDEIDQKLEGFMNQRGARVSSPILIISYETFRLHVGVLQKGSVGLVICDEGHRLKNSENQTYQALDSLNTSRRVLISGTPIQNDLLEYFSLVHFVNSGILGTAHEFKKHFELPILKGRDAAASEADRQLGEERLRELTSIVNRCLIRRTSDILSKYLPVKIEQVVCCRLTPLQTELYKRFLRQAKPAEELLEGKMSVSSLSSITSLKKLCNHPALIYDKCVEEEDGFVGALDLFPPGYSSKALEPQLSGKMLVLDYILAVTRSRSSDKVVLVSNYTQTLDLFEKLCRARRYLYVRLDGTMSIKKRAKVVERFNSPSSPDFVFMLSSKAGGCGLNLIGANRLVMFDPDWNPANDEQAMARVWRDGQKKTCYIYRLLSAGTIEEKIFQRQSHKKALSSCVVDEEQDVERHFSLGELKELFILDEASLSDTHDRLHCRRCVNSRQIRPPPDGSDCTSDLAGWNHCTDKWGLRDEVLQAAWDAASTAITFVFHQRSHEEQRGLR

[11] = biological target: Adenosylmethionine-8-amino-7-oxononanoate aminotransferase (Mycobacterium tuberculosis, UniProt P9WQ81); test: Mycobacterium tuberculosis BioA enzyme inhibitor Measured in Biochemical System Using Plate Reader - 2163-02_Inhibitor_Dose_CherryPick_Activity.; type: functional, Mycobacterium tuberculosis UT205
Chain of Adenosylmethionine-8-amino-7-oxononanoate aminotransferase (P9WQ81 whole entry): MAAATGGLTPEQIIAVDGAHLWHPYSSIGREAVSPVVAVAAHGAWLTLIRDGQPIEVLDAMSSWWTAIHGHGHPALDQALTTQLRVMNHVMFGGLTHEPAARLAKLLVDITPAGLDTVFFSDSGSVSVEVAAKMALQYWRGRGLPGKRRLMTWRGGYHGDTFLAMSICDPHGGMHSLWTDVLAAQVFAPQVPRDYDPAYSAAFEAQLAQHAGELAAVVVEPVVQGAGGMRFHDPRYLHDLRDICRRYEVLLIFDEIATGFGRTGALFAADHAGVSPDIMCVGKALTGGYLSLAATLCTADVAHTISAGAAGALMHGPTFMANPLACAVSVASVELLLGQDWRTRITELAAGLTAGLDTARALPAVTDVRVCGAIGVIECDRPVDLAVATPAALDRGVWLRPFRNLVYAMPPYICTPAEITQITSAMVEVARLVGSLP

[12] = biological target: T3, Apoptotic protease-activating factor 1 (Homo sapiens, UniProt O14727); type: functional
T3 sequence (O14727 whole entry): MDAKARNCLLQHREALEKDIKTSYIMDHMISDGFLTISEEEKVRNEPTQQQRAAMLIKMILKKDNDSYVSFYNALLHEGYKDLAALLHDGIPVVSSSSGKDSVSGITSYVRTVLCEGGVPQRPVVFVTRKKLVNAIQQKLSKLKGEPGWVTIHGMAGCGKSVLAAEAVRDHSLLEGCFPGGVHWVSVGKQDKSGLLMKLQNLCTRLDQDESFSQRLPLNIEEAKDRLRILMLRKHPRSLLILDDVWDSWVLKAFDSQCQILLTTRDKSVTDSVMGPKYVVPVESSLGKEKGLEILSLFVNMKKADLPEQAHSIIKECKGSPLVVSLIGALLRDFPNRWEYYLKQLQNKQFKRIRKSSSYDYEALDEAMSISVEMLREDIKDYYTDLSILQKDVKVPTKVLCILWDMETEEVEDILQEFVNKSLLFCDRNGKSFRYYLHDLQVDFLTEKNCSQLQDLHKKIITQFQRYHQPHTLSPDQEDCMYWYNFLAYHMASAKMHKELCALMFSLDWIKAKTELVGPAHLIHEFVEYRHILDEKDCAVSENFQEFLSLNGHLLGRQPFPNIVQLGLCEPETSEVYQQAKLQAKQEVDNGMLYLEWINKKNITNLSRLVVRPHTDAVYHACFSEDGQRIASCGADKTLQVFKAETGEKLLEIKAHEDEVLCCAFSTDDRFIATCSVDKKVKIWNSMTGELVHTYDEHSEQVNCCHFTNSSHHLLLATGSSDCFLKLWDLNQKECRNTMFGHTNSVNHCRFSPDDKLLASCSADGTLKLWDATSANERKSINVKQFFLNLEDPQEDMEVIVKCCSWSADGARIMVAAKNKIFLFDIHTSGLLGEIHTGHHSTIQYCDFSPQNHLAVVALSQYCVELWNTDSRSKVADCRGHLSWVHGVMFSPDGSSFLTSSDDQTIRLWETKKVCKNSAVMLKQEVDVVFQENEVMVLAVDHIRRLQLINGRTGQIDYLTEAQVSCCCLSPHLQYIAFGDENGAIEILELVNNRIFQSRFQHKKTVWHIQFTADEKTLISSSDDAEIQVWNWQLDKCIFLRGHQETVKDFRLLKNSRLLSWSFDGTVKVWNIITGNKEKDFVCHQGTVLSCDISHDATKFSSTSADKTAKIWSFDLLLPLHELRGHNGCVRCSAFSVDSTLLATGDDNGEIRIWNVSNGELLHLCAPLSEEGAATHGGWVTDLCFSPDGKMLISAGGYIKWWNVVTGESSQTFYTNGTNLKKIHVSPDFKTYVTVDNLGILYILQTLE

[13] = viability loss of HPDE-C7K cells – cell-based, fluorescence, HTS, primary screen (AID 431); type: functional; settings: Homo sapiens
[14] = HPDE-C7 pancreatic duct cell viability loss – fluorescence, HTS (AID 430); type: functional, cell-based; settings: Homo sapiens
[15] = biological target: T4, Histone-lysine N-methyltransferase NSD2 (Homo sapiens, UniProt O96028); type: biochemical
T4 sequence (O96028 whole entry): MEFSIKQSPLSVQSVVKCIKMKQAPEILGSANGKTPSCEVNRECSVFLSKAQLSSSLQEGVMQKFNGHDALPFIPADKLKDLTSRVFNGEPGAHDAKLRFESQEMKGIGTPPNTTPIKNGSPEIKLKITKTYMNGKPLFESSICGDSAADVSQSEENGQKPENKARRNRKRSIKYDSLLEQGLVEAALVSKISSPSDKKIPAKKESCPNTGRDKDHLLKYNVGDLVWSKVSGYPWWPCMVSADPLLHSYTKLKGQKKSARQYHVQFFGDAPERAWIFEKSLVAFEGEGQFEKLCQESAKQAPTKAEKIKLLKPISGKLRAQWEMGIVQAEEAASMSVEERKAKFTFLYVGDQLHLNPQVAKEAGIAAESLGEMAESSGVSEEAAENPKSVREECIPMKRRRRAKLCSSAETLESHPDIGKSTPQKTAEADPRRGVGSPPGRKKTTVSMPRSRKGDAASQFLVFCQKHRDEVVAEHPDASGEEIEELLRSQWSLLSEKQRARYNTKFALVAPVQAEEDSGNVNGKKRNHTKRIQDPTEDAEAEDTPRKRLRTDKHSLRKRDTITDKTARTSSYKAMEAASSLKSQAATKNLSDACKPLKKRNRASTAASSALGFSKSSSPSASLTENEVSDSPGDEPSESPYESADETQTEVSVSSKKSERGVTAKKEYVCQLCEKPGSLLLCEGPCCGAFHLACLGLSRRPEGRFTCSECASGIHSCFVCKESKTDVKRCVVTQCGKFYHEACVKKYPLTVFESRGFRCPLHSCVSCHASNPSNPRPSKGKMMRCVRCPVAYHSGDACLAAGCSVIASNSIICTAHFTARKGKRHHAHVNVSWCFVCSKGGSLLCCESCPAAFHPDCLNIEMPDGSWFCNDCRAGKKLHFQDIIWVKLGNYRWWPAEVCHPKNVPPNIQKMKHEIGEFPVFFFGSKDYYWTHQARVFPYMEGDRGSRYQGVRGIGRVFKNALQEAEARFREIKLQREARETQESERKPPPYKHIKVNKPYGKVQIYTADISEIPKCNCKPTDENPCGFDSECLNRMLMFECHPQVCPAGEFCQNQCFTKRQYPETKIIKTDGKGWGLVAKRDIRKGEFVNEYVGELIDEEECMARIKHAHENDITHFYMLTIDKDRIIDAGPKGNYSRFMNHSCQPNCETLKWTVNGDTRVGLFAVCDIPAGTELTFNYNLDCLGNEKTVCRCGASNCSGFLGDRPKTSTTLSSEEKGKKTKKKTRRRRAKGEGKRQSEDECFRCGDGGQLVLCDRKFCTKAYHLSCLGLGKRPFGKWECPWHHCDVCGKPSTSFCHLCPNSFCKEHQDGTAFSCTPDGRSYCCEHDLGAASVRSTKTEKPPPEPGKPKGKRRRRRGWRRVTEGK

[16] = inhibition of ARNT PAS-B/TACC3 complex formation – biochemical, AlphaScreen, cherry-picked samples, confirmation (AID 651703); type: functional, Homo sapiens;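 also: His-tagged ARNT PAS-B domain paired with GST-TACC3 E629A dimer coactivator fragment; potency of inhibitors that break up the complex and lower AlphaScreen signal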
[17] = loss of viability in HepG2 cells – cell-based, CellTiter-Glo, cherry-picked, cytotoxicity control for Shn3 inhibitor project, dose response (AID 624134); type: functional
HEK293 = test: EBV LMP1 TES2 canonical NF-kB signalling blockers – cell-based, HEK293, luciferase, cherry-pick, dose response (AID 588343); type: functional; settings: Homo sapiens
Interleukin-8 = biological target: T5, Interleukin-8 (Homo sapiens, UniProt P10145); test: Dose Response confirmation of uHTS small molecule hits for cystic fibrosis induced NFkb Inhibitors in a PAF-induced IL8 counterscreen.; type: functional; settings: read-out: IC50_Mean
T5 sequence (P10145 whole entry): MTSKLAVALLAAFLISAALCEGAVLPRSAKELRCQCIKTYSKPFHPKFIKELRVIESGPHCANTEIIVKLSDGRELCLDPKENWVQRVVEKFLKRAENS

[18] = microbe, parasite or virus in culture; type: functional; settings: Mycobacterium tuberculosis
Vero = test: cells; type: functional; settings: Chlorocebus sabaeus

Cc1sc2ncnc(NCC(O)c3ccc([N+](=O)[O-])cc3)c2c1C (stereo unspecified)
AC50 (INS1): 3.56 µM (active) | IC50 (Protein Wnt-3a): 0.544 µM (active)

CCCc1cc(=O)oc2cc(C)cc(OCC(=O)NC3CC3)c12
IC50 [1]: 1.31 µM (active) | IC50 (Steroidogenic factor 1): 0.0932 µM (active) | IC50 [2]: 35.9 µM (inactive)

O=C(COc1ccc2c3c(c(=O)oc2c1)CCCC3)NCc1ccccn1
IC50 [1]: 35.9 µM (inactive) | IC50 (Steroidogenic factor 1): 35.9 µM (inactive) | IC50 [2]: 35.9 µM (inactive)

CC(C)C(=O)Nc1ccc(NC(=S)NC(=O)c2ccc([N+](=O)[O-])cc2)cc1
IC50 [3]: > 66 µM (inactive) | IC50 [4]: > 66 µM (inactive)

COc1ccc(C2Nc3ccccc3C(=O)N2c2ccccc2)cc1CSc1ccccn1 (stereo unspecified)
IC50 [5]: 17.3 µM (active) | EC50 [6]: > 53 µM (inactive) | IC50 [7]: 2.16 µM (active)

O=C(N[C@@H]1C/C=C\C[C@H](CC(=O)N(CCO)Cc2ccccc2)C(=O)NC[C@@H](c2ccccc2)OC1=O)OCC1c2ccccc2-c2ccccc21
AC50 [8]: 4.9 µM (active) | AC50 [9]: 4.5 µM (active) | IC50 (Protein Wnt-3a): 4.4 µM (active)

CC(N)c1csc(Nc2nncc3ccccc23)n1 (stereo unspecified)
AC50 [10]: 28.5 µM (active)

CNC(=O)C[C@H]1CC[C@@H]2[C@H](COC[C@@H](O)CN2C(=O)Nc2cccc(OC)c2)O1
AC50 [11]: 4.57 µM (active)

Nc1nnc(SCc2ccc(F)cc2Cl)s1
IC50 [5]: 0.941 µM (active) | EC50 [6]: > 53 µM (inactive) | IC50 [7]: 14.3 µM (active)

COCCCn1c(N)c(C(=O)NCCC(C)C)c2nc3ccccc3nc21
IC50 [12]: 46.2 µM (active) | EC50 [13]: 12 µM (active) | EC50 [14]: 11.3 µM (active) | AC50 [15]: 15.9 µM (active) | AC50 [16]: 74.7 µM (active)

CCOC(=O)Oc1c(OC)cc(C(=O)O[C@@H]2C[C@@H]3CN4CCc5c([nH]c6cc(OC)ccc56)[C@H]4C[C@@H]3[C@H](C(=O)OC)[C@H]2OC)cc1OC [SYROSINGOPINE]
AC50 [17]: 50.6 µM (active) | AC50 [8]: 22.4 µM (active) | AC50 (HEK293): 24.6 µM (active) | IC50 (Interleukin-8): > 79 µM (inactive) | AC50 [9]: 10.7 µM (active) | CC50 [18]: 24.6 µM (active) | CC50 (Vero): 11.9 µM (active)

Cc1ccnc(SC2CC(=O)N(c3ccccc3)C2=O)n1 (stereo unspecified)
IC50 [3]: > 66 µM (inactive) | IC50 [4]: > 66 µM (inactive)

CC(=O)c1ccc(C(=O)N2CCCC(C(=O)c3ccc(Cl)cc3)C2)s1 (stereo unspecified)
AC50 [11]: 2.51 µM (active)

From ChEMBL document CHEMBL1201862, “PubChem BioAssay data set” (2004)
